{"source": "paper PMC10803372", "about": "(Cell Death & Disease, 2024)", "molecular_target": "T1, PIKfyve (Homo sapiens, UniProt Q9Y2I7)", "T1 construct": "Recombinant GST-PIKfyve (full-length, #11-118)", "T1 sequence (Q9Y2I7 2-2098)": "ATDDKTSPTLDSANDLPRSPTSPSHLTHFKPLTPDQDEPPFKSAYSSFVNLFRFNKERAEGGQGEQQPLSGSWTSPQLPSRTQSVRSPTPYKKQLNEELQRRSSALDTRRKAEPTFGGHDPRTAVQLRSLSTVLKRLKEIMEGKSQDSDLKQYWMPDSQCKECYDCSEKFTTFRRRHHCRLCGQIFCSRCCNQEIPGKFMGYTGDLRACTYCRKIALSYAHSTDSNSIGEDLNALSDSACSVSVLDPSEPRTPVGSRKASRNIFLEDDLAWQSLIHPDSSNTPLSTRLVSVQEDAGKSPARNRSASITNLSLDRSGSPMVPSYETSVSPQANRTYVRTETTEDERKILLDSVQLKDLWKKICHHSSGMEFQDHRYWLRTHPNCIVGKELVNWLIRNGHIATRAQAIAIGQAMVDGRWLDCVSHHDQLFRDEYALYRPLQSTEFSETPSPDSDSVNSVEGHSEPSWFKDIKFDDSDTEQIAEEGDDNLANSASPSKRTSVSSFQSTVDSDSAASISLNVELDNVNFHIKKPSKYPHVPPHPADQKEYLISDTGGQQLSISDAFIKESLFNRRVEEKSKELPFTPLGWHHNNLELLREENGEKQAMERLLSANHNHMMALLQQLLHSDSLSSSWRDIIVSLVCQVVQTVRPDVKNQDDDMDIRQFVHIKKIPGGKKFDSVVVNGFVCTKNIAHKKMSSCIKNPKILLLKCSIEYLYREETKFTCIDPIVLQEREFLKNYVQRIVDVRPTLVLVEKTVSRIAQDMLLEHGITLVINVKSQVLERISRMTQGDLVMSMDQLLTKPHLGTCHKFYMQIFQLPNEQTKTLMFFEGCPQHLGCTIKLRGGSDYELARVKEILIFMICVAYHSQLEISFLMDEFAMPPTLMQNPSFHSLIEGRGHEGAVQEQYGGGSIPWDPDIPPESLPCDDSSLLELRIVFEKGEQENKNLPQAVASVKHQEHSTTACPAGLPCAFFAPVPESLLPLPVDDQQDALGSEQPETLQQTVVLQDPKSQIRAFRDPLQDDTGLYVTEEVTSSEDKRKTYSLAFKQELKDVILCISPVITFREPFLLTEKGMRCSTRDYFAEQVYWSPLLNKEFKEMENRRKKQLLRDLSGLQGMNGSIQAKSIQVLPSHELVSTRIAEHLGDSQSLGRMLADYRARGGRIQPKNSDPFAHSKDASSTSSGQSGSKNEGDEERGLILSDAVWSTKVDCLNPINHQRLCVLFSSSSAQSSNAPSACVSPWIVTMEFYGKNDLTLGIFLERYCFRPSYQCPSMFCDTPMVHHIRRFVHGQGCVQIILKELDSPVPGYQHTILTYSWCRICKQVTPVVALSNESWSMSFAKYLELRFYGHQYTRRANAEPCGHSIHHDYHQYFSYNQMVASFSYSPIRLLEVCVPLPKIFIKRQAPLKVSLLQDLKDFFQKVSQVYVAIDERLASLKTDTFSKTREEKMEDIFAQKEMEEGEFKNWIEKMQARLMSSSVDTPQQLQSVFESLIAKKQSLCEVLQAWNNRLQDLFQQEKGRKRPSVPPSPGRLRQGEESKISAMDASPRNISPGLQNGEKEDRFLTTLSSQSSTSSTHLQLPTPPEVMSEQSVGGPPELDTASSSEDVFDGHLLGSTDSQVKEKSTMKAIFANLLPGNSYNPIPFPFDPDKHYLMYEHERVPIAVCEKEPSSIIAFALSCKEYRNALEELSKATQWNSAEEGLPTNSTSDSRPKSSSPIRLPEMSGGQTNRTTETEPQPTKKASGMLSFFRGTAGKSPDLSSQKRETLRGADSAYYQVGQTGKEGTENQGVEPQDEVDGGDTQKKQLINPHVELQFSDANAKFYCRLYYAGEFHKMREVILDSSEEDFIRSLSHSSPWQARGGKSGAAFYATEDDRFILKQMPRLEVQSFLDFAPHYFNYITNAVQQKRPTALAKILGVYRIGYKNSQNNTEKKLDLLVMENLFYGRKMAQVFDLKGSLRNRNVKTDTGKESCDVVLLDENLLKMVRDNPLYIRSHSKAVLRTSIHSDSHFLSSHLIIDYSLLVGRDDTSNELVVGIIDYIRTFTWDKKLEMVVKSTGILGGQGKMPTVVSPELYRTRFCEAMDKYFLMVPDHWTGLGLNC", "assay": "in vitro lipid kinase assay, ADP-Glo luminescence, PI([…])P substrate", "type": "biochemical"}
{"smiles": "Oc1ccc(-c2nc(-c3ccncc3)c(-c3ccc(F)cc3)[nH]2)cc1", "note": "[SB202190]", "values": [{"measurement": "IC50", "value": "355 ± 36.2", "unit": "nM"}]}
